Patent US20240247035A1, “STAPLED ANTIMICROBIAL PEPTIDES (STAMPS) AND USES THEREOF” (Lytica Therapeutics, Inc., priority 2021, published 2024)
Values after ≈ are worked out from the molar mass of the structure shown. Read-outs that look alike come from different tables or passages of the source. Bridge positions count the residues as written; N and C are the ends. Square brackets hold non-standard residues; d marks the D form. Peptide text beside a SMILES is read from it. S5 = C=CCCC[C@](C)(N)C(=O)O

Experiments:
[1] = system: P. aeruginosa; format: cell-based, Pseudomonas aeruginosa; conditions: 20-24 hours at 37° C., no visible bacterial growth
Method: (§1) Antimicrobial Activity Assay: The following microbroth dilution protocol was adapted from CLSI to determine the minimum inhibitory concentration (MIC) of StAMPs. Briefly, Mueller-Hinton broth (MHB) or cation-adjusted Mueller-Hinton broth (MHB II) was prepared and autoclaved. Then, a colony of bacterial cells was picked and grown overnight in broth at 37° C. and then diluted and allowed to grow again for 3-4 hours. Serial dilutions of peptide stocks in water (10 μl) were prepared using clear round-bottom polypropylene 96-well plates. Then 90 μl of bacteria in broth was added to give a final inoculum of 5×10^5 CFU/ml. The plates were then covered with porous tape to reduce evaporation and incubated for 20-24 hours at 37° C. The MIC was the minimum peptide concentration at which no visible bacterial growth was observed.

[2] = system: K. pneumoniae; format: cell-based, Klebsiella pneumoniae; conditions: 20-24 hours at 37° C., no visible bacterial growth
Method: as §1

[3] = 90 minute cytotoxicity assay (LDH release), renal toxicity; format: cell-based; conditions: human
How it was run: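 RPTEC in growth-factor-supplemented MEM were exposed overnight-plated to serial dilutions of StAMPs (from 5 mg/mL water stock) or vehicle for 90 min at 37 °C. Released LDH in medium was measured with LDH reagent for 10 min, absorbance at 490 nm.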

[4] = system: A. baumannii; format: cell-based, Acinetobacter baumannii; conditions: 20-24 hours at 37° C., no visible bacterial growth
Method: as §1

[5] = system: S. aureus; format: cell-based, Staphylococcus aureus; conditions: 20-24 hours at 37° C., no visible bacterial growth
Method: as §1

[6] = 48 hours cytotoxicity assay (CellTiter-Glo), liver toxicity; format: cell-based; conditions: human
How it was run: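 HepG2 cells (EMEM, 10% FBS) attached 4 h, then exposed to serial dilutions of StAMPs (from 5 mg/mL water stock) or vehicle for 48 h at 37° C. Viability read by CellTiter-Glo luminescence after 10 min at room temperature.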

[7] = system: E. coli; format: cell-based, Escherichia coli; conditions: 20-24 hours at 37° C., no visible bacterial growth
Method: as §1

SMILES | IC50 at 90 min [3] [µg/mL] | IC50 at 48 hours [6] [µg/mL] | further results
CC[C@H](C)[C@@H]1NC(=O)[C@@](C)(NC(=O)[C@H](CC(C)C)NC(=O)[C@H](CC(N)=O)NC(=O)[C@H](CCCCN)NC(=O)[C@H](CCCCN)NC(=O)[C@H](CCCCN)NC(=O)[C@H](CCCCN)NC(=O)CNC(=O)[C@H](CCCCN)NC(=O)[C@]2(C)CCCC=CCCC[C@](C)(NC(=O)CN)C(=O)N[C@@H](Cc3ccccc3)C(=O)N[C@@H](CO)C(=O)N[C@@H](CCCCN)C(=O)N2)CCCC=CCCC[C@@](C)(C(=O)N[C@@H](CCCCN)C(=O)NCC(N)=O)NC(=O)CNC(=O)[C@H](CO)NC1=O [compound 28] (H-G[S5]FSK[S5]KGKKKKNL[S5]ISG[S5]KG-NH2; staple 2-6, 15-19) | – | – | Minimum Inhibitory Concentration (MIC) P. aeruginosa [1]: 6 µg/mL; Minimum Inhibitory Concentration (MIC) K. pneumoniae [2]: >64 µg/mL; IC50 at 90 min ([3]; 90 minutes of incubation, LDH, read-out: Inhibitory Concentration at 50% Cytotoxicity (IC50) Human Renal Proximal Tubule Epithelial Cells (RPTEC)): > 200 µg/mL; Minimum Inhibitory Concentration (MIC) A. baumannii [4]: 6 µg/mL; Minimum Inhibitory Concentration (MIC) S. aureus [5]: >64 µg/mL; IC50 at 48 hours ([6]; 48 hours of incubation, CellTiter-Glo, read-out: Inhibitory Concentration at 50% Cytotoxicity (IC50) Human Liver Cells (HepG2)): > 200 µg/mL; Minimum Inhibitory Concentration (MIC) E. coli [7]: 64 µg/mL
CC[C@H](C)[C@H](NC(=O)[C@H](CCCCN)NC(=O)[C@H](CCCCN)NC(=O)CNC(=O)[C@H](CCCCN)NC(=O)[C@]1(C)CCCC=CCCC[C@](C)(NC(=O)CN)C(=O)N[C@@H](Cc2ccccc2)C(=O)N[C@@H](CO)C(=O)N[C@@H](CCCCN)C(=O)N1)C(=O)N[C@@H](CCCCN)C(=O)N[C@@H](CC(N)=O)C(=O)N[C@@H](CC(C)C)C(=O)N[C@@]1(C)CCCC=CCCC[C@@](C)(C(=O)N[C@@H](CCCCN)C(=O)NCC(N)=O)NC(=O)CNC(=O)[C@H](CCCCN)NC(=O)[C@H]([C@@H](C)CC)NC1=O [compound 32] (H-G[S5]FSK[S5]KGKKIKNL[S5]IKG[S5]KG-NH2; staple 2-6, 15-19) | 33 (≈ 14.2 µM) | 25 (≈ 10.7 µM) | –
CC[C@H](C)[C@H](NC(=O)[C@H](CCCCN)NC(=O)[C@H](CCCCN)NC(=O)CNC(=O)[C@H](CCCCN)NC(=O)[C@]1(C)CCCC=CCCC[C@](C)(NC(=O)CN)C(=O)N[C@@H](Cc2ccccc2)C(=O)N[C@@H](CO)C(=O)N[C@@H](CCCCN)C(=O)N1)C(=O)N[C@@H](CCCCN)C(=O)N[C@@H](CC(N)=O)C(=O)N[C@@]1(C)CCCC=CCCC[C@@](C)(C(=O)N[C@@H](CC(C)C)C(=O)N[C@@H](CCCCN)C(=O)NCC(N)=O)NC(=O)[C@H](CO)NC(=O)[C@H]([C@@H](C)CC)NC(=O)[C@H](CC(C)C)NC1=O [compound 33] (H-G[S5]FSK[S5]KGKKIKN[S5]LIS[S5]LKG-NH2; staple 2-6, 14-18) | 11 (≈ 4.69 µM) | 13 (≈ 5.54 µM) | –
CC[C@H](C)[C@H](NC(=O)[C@H](CCCCN)NC(=O)[C@H](CCCCN)NC(=O)CNC(=O)[C@H](CCCCN)NC(=O)[C@]1(C)CCCC=CCCC[C@](C)(NC(=O)CN)C(=O)N[C@@H](Cc2ccccc2)C(=O)N[C@@H](CO)C(=O)N[C@@H](CCCCN)C(=O)N1)C(=O)N[C@@H](CCCCN)C(=O)N[C@@]1(C)CCCC=CCCC[C@@](C)(C(=O)NCC(=O)N[C@@H](CC(C)C)C(=O)N[C@@H](CCCCN)C(=O)NCC(N)=O)NC(=O)[C@H]([C@@H](C)CC)NC(=O)[C@H](CC(C)C)NC(=O)[C@H](CC(C)C)NC1=O [compound 34] (H-G[S5]FSK[S5]KGKKIK[S5]LLI[S5]GLKG-NH2; staple 2-6, 13-17) | 35 (≈ 15.1 µM) | 22 (≈ 9.5 µM) | –
CC[C@H](C)[C@H](NC(=O)[C@]1(C)CCCC=CCCC[C@](C)(NC(=O)[C@H](CCCCN)NC(=O)[C@H](CCCCN)NC(=O)CNC(=O)[C@H](CCCCN)NC(=O)[C@]2(C)CCCC=CCCC[C@](C)(NC(=O)CN)C(=O)N[C@@H](Cc3ccccc3)C(=O)N[C@@H](CO)C(=O)N[C@@H](CCCCN)C(=O)N2)C(=O)N[C@@H](CCCCN)C(=O)N[C@@H](CC(N)=O)C(=O)N[C@@H](CC(C)C)C(=O)N1)C(=O)N[C@@H](CO)C(=O)NCC(=O)N[C@@H](CC(C)C)C(=O)N[C@@H](CCCCN)C(=O)NCC(N)=O [compound 35] (H-G[S5]FSK[S5]KGKK[S5]KNL[S5]ISGLKG-NH2; staple 2-6, 11-15) | 27 (≈ 11.8 µM) | 23 (≈ 10 µM) | –
CC[C@H](C)[C@H](NC(=O)[C@H](CCCCN)NC(=O)[C@H](CCCCN)NC(=O)CNC(=O)[C@H](CCCCN)NC(=O)[C@]1(C)CCCC=CCCC[C@](C)(NC(=O)CN)C(=O)N[C@@H](Cc2ccccc2)C(=O)N[C@@H](CO)C(=O)N[C@@H](CCCCN)C(=O)N1)C(=O)N[C@@H](CCCCN)C(=O)N[C@@H](CC(N)=O)C(=O)N[C@@H](CC(C)C)C(=O)N[C@@H](CC(C)C)C(=O)N[C@@]1(C)CCCC=CCCC[C@@](C)(C(=O)NCC(N)=O)NC(=O)[C@H](CC(C)C)NC(=O)CNC(=O)[C@H](CO)NC1=O [compound 36] (H-G[S5]FSK[S5]KGKKIKNLL[S5]SGL[S5]G-NH2; staple 2-6, 16-20) | 63 (≈ 27.7 µM) | 67 (≈ 29.5 µM) | –
CC[C@H](C)[C@H](NC(=O)[C@H](CCCCN)NC(=O)[C@H](CCCCN)NC(=O)CNC(=O)[C@H](CCCCN)NC(=O)[C@]1(C)CCCC=CCCC[C@](C)(NC(=O)CN)C(=O)N[C@@H](Cc2ccccc2)C(=O)N[C@@H](CO)C(=O)N[C@@H](CCCCN)C(=O)N1)C(=O)N[C@@H](CCCCN)C(=O)N[C@@H](CC(N)=O)C(=O)N[C@@H](CC(C)C)C(=O)N[C@@H](CC(C)C)C(=O)N[C@@]1(C)CCCC=CCCC[C@@](C)(C(=O)NCC(N)=O)NC(=O)[C@H](CCCCN)NC(=O)CNC(=O)[C@H](CO)NC1=O [compound 37] (H-G[S5]FSK[S5]KGKKIKNLL[S5]SGK[S5]G-NH2; staple 2-6, 16-20) | > 200 | > 200 | –
CC[C@H](C)[C@H](NC(=O)[C@H](CCCCN)NC(=O)[C@H](CCCCN)NC(=O)CNC(=O)[C@H](CCCCN)NC(=O)[C@]1(C)CCCC=CCCC[C@](C)(NC(=O)CN)C(=O)N[C@@H](Cc2ccccc2)C(=O)N[C@@H](CO)C(=O)N[C@@H](CCCCN)C(=O)N1)C(=O)N[C@@H](CCCCN)C(=O)N[C@@H](CC(N)=O)C(=O)N[C@@H](CC(C)C)C(=O)N[C@@H](CC(C)C)C(=O)N[C@@]1(C)CCCC=CCCC[C@@](C)(C(=O)N[C@@H](CCCCN)C(N)=O)NC(=O)[C@H](CC(C)C)NC(=O)CNC(=O)[C@H](CO)NC1=O [compound 38] (H-G[S5]FSK[S5]KGKKIKNLL[S5]SGL[S5]K-NH2; staple 2-6, 16-20) | 51 (≈ 21.7 µM) | 54 (≈ 23 µM) | –
CC[C@H](C)[C@H](NC(=O)[C@H](CCCCN)NC(=O)[C@H](CCCCN)NC(=O)CNC(=O)[C@H](CCCCN)NC(=O)[C@]1(C)CCCC=CCCC[C@](C)(NC(=O)CN)C(=O)N[C@@H](Cc2ccccc2)C(=O)N[C@@H](CO)C(=O)N[C@@H](CCCCN)C(=O)N1)C(=O)N[C@@H](CCCCN)C(=O)N[C@@H](CC(N)=O)C(=O)N[C@@H](CC(C)C)C(=O)N[C@@H](CC(C)C)C(=O)N[C@@]1(C)CCCC=CCCC[C@@](C)(C(=O)N[C@@H](CCCCN)C(=O)NCC(=O)NCC(=O)N[C@@H](CCC(=O)O)C(N)=O)NC(=O)[C@H](CC(C)C)NC(=O)CNC(=O)[C@H](CO)NC1=O [compound 39] (H-G[S5]FSK[S5]KGKKIKNLL[S5]SGL[S5]KGGE-NH2; staple 2-6, 16-20) | > 200 | > 200 | –
CC[C@H](C)[C@H](NC(=O)CN)C(=O)N[C@@H](Cc1ccccc1)C(=O)N[C@@H](CO)C(=O)N[C@@H](CCCCN)C(=O)N[C@@H](CC(C)C)C(=O)N[C@@]1(C)CCCC=CCCC[C@@](C)(C(=O)N[C@@H](CCCCN)C(=O)N[C@@H](CC(N)=O)C(=O)N[C@@H](CC(C)C)C(=O)N[C@@H](CC(C)C)C(=O)N[C@H](C(=O)N[C@@H](CO)C(=O)NCC(=O)N[C@@H](CC(C)C)C(=O)N[C@@H](CCCCN)C(=O)NCC(N)=O)[C@@H](C)CC)NC(=O)[C@H](CCCCN)NC(=O)[C@H](CCCCN)NC(=O)CNC1=O [compound 40] (H-GIFSKL[S5]GKK[S5]KNLLISGLKG-NH2; staple 7-11) | 11 (≈ 4.89 µM) | 17 (≈ 7.55 µM) | –
CC[C@H](C)[C@H](NC(=O)CN)C(=O)N[C@@H](Cc1ccccc1)C(=O)N[C@@H](CO)C(=O)N[C@@H](CCCCN)C(=O)N[C@@H](CC(C)C)C(=O)N[C@@]1(C)CCCC=CCCC[C@@](C)(C(=O)N[C@@H](CCCCN)C(=O)N[C@@H](CC(N)=O)C(=O)N[C@@H](CC(C)C)C(=O)N[C@@H](CCCCN)C(=O)N[C@H](C(=O)N[C@@H](CO)C(=O)NCC(=O)N[C@@H](CC(C)C)C(=O)N[C@@H](CCCCN)C(=O)NCC(N)=O)[C@@H](C)CC)NC(=O)[C@H](CCCCN)NC(=O)[C@H](CCCCN)NC(=O)CNC1=O [compound 41] (H-GIFSKL[S5]GKK[S5]KNLKISGLKG-NH2; staple 7-11) | 147 (≈ 64.9 µM) | 172 (≈ 75.9 µM) | –
CC[C@H](C)[C@@H]1NC(=O)[C@@](C)(NC(=O)[C@H](CCCCN)NC(=O)[C@H](CCCCN)NC(=O)CNC(=O)[C@H](CCCCN)NC(=O)[C@]2(C)CCCC=CCCC[C@](C)(NC(=O)CN)C(=O)N[C@@H](Cc3ccccc3)C(=O)N[C@@H](CO)C(=O)N[C@@H](CCCCN)C(=O)N2)CCCC=CCCC[C@@](C)(C(=O)N[C@@H](CCCCN)C(=O)NCC(N)=O)NC(=O)CNC(=O)[C@H](CO)NC1=O [compound 42] (H-G[S5]FSK[S5]KGKK[S5]ISG[S5]KG-NH2; staple 2-6, 11-15) | > 200 | > 200 | –
